Measured values taken from patent publication US12433293B2, “Herbicidal compositions” (BAYER AKTIENGESELLSCHAFT, priority 2019, dated 2025).

Test system: harmful plant species
Assay: Specific trial examples: synergistic effect (Δ) of herbicidal binary compositions applied by the post-emergence method, observed vs Colby expected value (Tables 3.1-3.4)
Type: in vivo
[1] = 1 g a.i./ha, post-emergence (Z25)
[2] = 1 g a.i./ha, post-emergence (Z26)
[3] = 4 g a.i./ha, post-emergence (Table 3.2, Z25)
[4] = 5 g a.i./ha, post-emergence (Table 3.2, Z25)
[5] = 16 g a.i./ha, post-emergence (Table 3.2, Z25)

C=C[C@]1(C(=O)N[C@H]2C=C[C@@H](C(=O)OC)C2)CC(c2cc(F)cc(F)c2)=NO1 [Compound A1, methyl (1S,4R)-4-[[[(5S)-3-(3,5-difluorophenyl)-5-vinyl-4H-1,2-oxazol-5-yl]carbonyl]amino]cyclopent-2-ene-1-carboxylate]
Herbicidal action 14 DAT [%] against Lolium rigidum (resistant biotype) (1 g a.i./ha, post-emergence): 20%
Herbicidal action 14 DAT [%] against Phalaris minor (1 g a.i./ha, post-emergence): 30%
Herbicidal action 14 DAT [%] against Veronica hederifolia (1 g a.i./ha, post-emergence): 30%
Herbicidal action 28 DAT [%] against Bromus sterilis (1 g a.i./ha, post-emergence): 30%
Herbicidal action 28 DAT [%] against Lolium rigidum (resistant biotype) (1 g a.i./ha, post-emergence): 20%
Herbicidal action 28 DAT [%] against Poa annua L. (1 g a.i./ha, post-emergence): 30%
Herbicidal action 14 DAT [%] against Phalaris minor (1 g a.i./ha, post-emergence (Table 3.2, Z25)): 30%
Herbicidal action 14 DAT [%] against Centaurea cyanus [1]: 10%
Herbicidal action 28 DAT [%] against Centaurea cyanus [1]: 10%
Herbicidal action 28 DAT [%] against Lolium rigidum [1]: 30%
Herbicidal action 28 DAT [%] against Matricaria inodora [1]: 50%
Herbicidal action 14 DAT [%] against Centaurea cyanus [2]: 10%
Herbicidal action 28 DAT [%] against Centaurea cyanus [2]: 10%
Herbicidal action 28 DAT [%] against Lolium rigidum [2]: 30%
Herbicidal action 28 DAT [%] against Matricaria inodora [2]: 50%
Herbicidal action 28 DAT [%] against Poa annua L. [2]: 30%
Herbicidal action 21 DAT [%] against Setaria viridis (1.7 g a.i./ha, post-emergence): 85%
Herbicidal action 14 DAT [%] against Alopecurus myosuroides (4 g a.i./ha, post-emergence): 80%
Herbicidal action 14 DAT [%] against Centaurea cyanus (4 g a.i./ha, post-emergence): 30%
Herbicidal action 14 DAT [%] against Lolium rigidum (4 g a.i./ha, post-emergence): 70%
Herbicidal action 14 DAT [%] against Matricaria inodora (4 g a.i./ha, post-emergence): 70%
Herbicidal action 14 DAT [%] against Phalaris minor (4 g a.i./ha, post-emergence): 75%
Herbicidal action 14 DAT [%] against Poa annua L. (4 g a.i./ha, post-emergence): 80%
Herbicidal action 28 DAT [%] against Alopecurus myosuroides (4 g a.i./ha, post-emergence): 85%
Herbicidal action 28 DAT [%] against Centaurea cyanus (4 g a.i./ha, post-emergence): 30%
Herbicidal action 28 DAT [%] against Lolium rigidum (4 g a.i./ha, post-emergence): 75%
Herbicidal action 28 DAT [%] against Phalaris minor (4 g a.i./ha, post-emergence): 70%
Herbicidal action 28 DAT [%] against Poa annua L. (4 g a.i./ha, post-emergence): 85%
Herbicidal action 28 DAT [%] against Veronica hederifolia (4 g a.i./ha, post-emergence): 40%
Herbicidal action 14 DAT [%] against Phalaris minor [3]: 75%
Herbicidal action 28 DAT [%] against Lolium rigidum [3]: 75%
Herbicidal action 28 DAT [%] against Phalaris minor [3]: 70%
Herbicidal action 28 DAT [%] against Poa annua L. [3]: 85%
Herbicidal action 28 DAT [%] against Lolium rigidum (resistant biotype) (4 g a.i./ha, post-emergence (Z25)): 40%
Herbicidal action 28 DAT [%] against Lolium rigidum (resistant biotype) (4 g a.i./ha, post-emergence (Z26)): 40%
Herbicidal action 21 DAT [%] against Abutilon theophrasti (5 g a.i./ha, post-emergence): 60%
Herbicidal action 21 DAT [%] against Ipomoea purpurea (5 g a.i./ha, post-emergence): 80%
Herbicidal action 21 DAT [%] against Kochia Scoparia (5 g a.i./ha, post-emergence): 75%
Herbicidal action 21 DAT [%] against Setaria viridis (5 g a.i./ha, post-emergence): 90%
Herbicidal action 21 DAT [%] against Abutilon theophrasti [4]: 60%
Herbicidal action 21 DAT [%] against Kochia Scoparia [4]: 75%
Herbicidal action 21 DAT [%] against Amaranthus palmeri (5 g a.i./ha, post-emergence (Z25)): 30%
Herbicidal action 21 DAT [%] against Amaranthus palmeri (5 g a.i./ha, post-emergence (Z26)): 30%
Herbicidal action 21 DAT [%] against Amaranthus palmeri (15 g a.i./ha, post-emergence): 40%
Herbicidal action 21 DAT [%] against Ipomoea purpurea (15 g a.i./ha, post-emergence): 80%
Herbicidal action 21 DAT [%] against Kochia Scoparia (15 g a.i./ha, post-emergence): 80%
Herbicidal action 21 DAT [%] against Kochia Scoparia (15 g a.i./ha, post-emergence (Table 3.2, Z25)): 80%
Herbicidal action 21 DAT [%] against Kochia Scoparia (15 g a.i./ha, post-emergence (Z26)): 80%
Herbicidal action 14 DAT [%] against Alopecurus myosuroides (16 g a.i./ha, post-emergence): 85%
Herbicidal action 14 DAT [%] against Centaurea cyanus (16 g a.i./ha, post-emergence): 40%
Herbicidal action 14 DAT [%] against Lolium rigidum (16 g a.i./ha, post-emergence): 80%
Herbicidal action 14 DAT [%] against Poa annua L. (16 g a.i./ha, post-emergence): 80%
Herbicidal action 14 DAT [%] against Veronica hederifolia (16 g a.i./ha, post-emergence): 70%
Herbicidal action 28 DAT [%] against Centaurea cyanus (16 g a.i./ha, post-emergence): 50%
Herbicidal action 28 DAT [%] against Matricaria inodora (16 g a.i./ha, post-emergence): 85%
Herbicidal action 28 DAT [%] against Phalaris minor (16 g a.i./ha, post-emergence): 85%
Herbicidal action 28 DAT [%] against Matricaria inodora [5]: 85%
Herbicidal action 28 DAT [%] against Phalaris minor [5]: 85%
Herbicidal action 28 DAT [%] against Phalaris minor (16 g a.i./ha, post-emergence (Z26)): 85%
Herbicidal action 21 DAT [%] against Kochia Scoparia (45 g a.i./ha, post-emergence): 85%
Herbicidal action 16 DAT [%] against Richardia scabra (100 g a.i./ha, post-emergence): 48%
Herbicidal action 42 DAT [%] against Geranium dissectum (100 g a.i./ha, post-emergence): 17%
Herbicidal action 42 DAT [%] against Malva pusilla (100 g a.i./ha, post-emergence): 0%
Herbicidal action 45 DAT [%] against Amaranthus tuberculatus (100 g a.i./ha, post-emergence): 57%
Herbicidal action 45 DAT [%] against Ipomoea ssp (100 g a.i./ha, post-emergence): 57%
Herbicidal action 45 DAT [%] against Lysimachia nummularia (100 g a.i./ha, post-emergence): 25%

O=C(Nc1ccc(F)cc1F)c1cccnc1Oc1cccc(C(F)(F)F)c1 [(B2.18) Diflufenican]
Herbicidal action 14 DAT [%] against Alopecurus myosuroides (30 g a.i./ha, post-emergence): 20%
Herbicidal action 14 DAT [%] against Phalaris minor (30 g a.i./ha, post-emergence): 20%
Herbicidal action 21 DAT [%] against Abutilon theophrasti (30 g a.i./ha, post-emergence): 20%
Herbicidal action 21 DAT [%] against Ipomoea purpurea (30 g a.i./ha, post-emergence): 30%
Herbicidal action 21 DAT [%] against Kochia Scoparia (30 g a.i./ha, post-emergence): 10%
Herbicidal action 21 DAT [%] against Setaria viridis (30 g a.i./ha, post-emergence): 10%
Herbicidal action 28 DAT [%] against Phalaris minor (30 g a.i./ha, post-emergence): 10%
Herbicidal action 28 DAT [%] against Poa annua L. (30 g a.i./ha, post-emergence): 10%
Herbicidal action 28 DAT [%] against Veronica hederifolia (30 g a.i./ha, post-emergence): 20%
Herbicidal action 14 DAT [%] against Alopecurus myosuroides (90 g a.i./ha, post-emergence): 20%
Herbicidal action 14 DAT [%] against Lolium rigidum (90 g a.i./ha, post-emergence): 20%
Herbicidal action 14 DAT [%] against Poa annua L. (90 g a.i./ha, post-emergence): 20%
Herbicidal action 21 DAT [%] against Abutilon theophrasti (90 g a.i./ha, post-emergence): 20%
Herbicidal action 21 DAT [%] against Kochia Scoparia (90 g a.i./ha, post-emergence): 20%
Herbicidal action 21 DAT [%] against Setaria viridis (90 g a.i./ha, post-emergence): 20%
Herbicidal action 28 DAT [%] against Phalaris minor (90 g a.i./ha, post-emergence): 10%
Herbicidal action 28 DAT [%] against Poa annua L. (90 g a.i./ha, post-emergence): 20%
Herbicidal action 28 DAT [%] against Veronica hederifolia (90 g a.i./ha, post-emergence): 20%
Herbicidal action 14 DAT [%] against Lolium rigidum (270 g a.i./ha, post-emergence): 20%
Herbicidal action 14 DAT [%] against Matricaria inodora (270 g a.i./ha, post-emergence): 30%
Herbicidal action 14 DAT [%] against Phalaris minor (270 g a.i./ha, post-emergence): 30%
Herbicidal action 14 DAT [%] against Veronica hederifolia (270 g a.i./ha, post-emergence): 30%
Herbicidal action 21 DAT [%] against Abutilon theophrasti (270 g a.i./ha, post-emergence): 30%
Herbicidal action 21 DAT [%] against Ipomoea purpurea (270 g a.i./ha, post-emergence): 60%
Herbicidal action 21 DAT [%] against Kochia Scoparia (270 g a.i./ha, post-emergence): 25%
Herbicidal action 28 DAT [%] against Alopecurus myosuroides (270 g a.i./ha, post-emergence): 20%
Herbicidal action 28 DAT [%] against Lolium rigidum (270 g a.i./ha, post-emergence): 30%
Herbicidal action 28 DAT [%] against Matricaria inodora (270 g a.i./ha, post-emergence): 20%
Herbicidal action 28 DAT [%] against Phalaris minor (270 g a.i./ha, post-emergence): 30%
Herbicidal action 28 DAT [%] against Poa annua L. (270 g a.i./ha, post-emergence): 30%
Herbicidal action 28 DAT [%] against Veronica hederifolia (270 g a.i./ha, post-emergence): 30%

CP(=O)(O)CCC(N)C(=O)O (stereo not drawn) [(B7.4) Glufosinate]
Herbicidal action 21 DAT [%] against Abutilon theophrasti (50 g a.i./ha, post-emergence): 50%
Herbicidal action 21 DAT [%] against Kochia Scoparia (50 g a.i./ha, post-emergence): 10%
Herbicidal action 21 DAT [%] against Amaranthus palmeri (50 g a.i./ha, post-emergence (Z25)): 35%
Herbicidal action 14 DAT [%] against Phalaris minor (60 g a.i./ha, post-emergence): 20%
Herbicidal action 14 DAT [%] against Veronica hederifolia (60 g a.i./ha, post-emergence): 50%
Herbicidal action 28 DAT [%] against Phalaris minor (60 g a.i./ha, post-emergence): 10%
Herbicidal action 21 DAT [%] against Amaranthus palmeri (150 g a.i./ha, post-emergence): 90%
Herbicidal action 21 DAT [%] against Kochia Scoparia (150 g a.i./ha, post-emergence): 50%
Herbicidal action 14 DAT [%] against Centaurea cyanus (180 g a.i./ha, post-emergence): 60%
Herbicidal action 14 DAT [%] against Lolium rigidum (180 g a.i./ha, post-emergence): 40%
Herbicidal action 28 DAT [%] against Centaurea cyanus (180 g a.i./ha, post-emergence): 30%
Herbicidal action 28 DAT [%] against Matricaria inodora (180 g a.i./ha, post-emergence): 60%
Herbicidal action 28 DAT [%] against Phalaris minor (180 g a.i./ha, post-emergence): 30%
Herbicidal action 28 DAT [%] against Poa annua L. (180 g a.i./ha, post-emergence): 20%
Herbicidal action 14 DAT [%] against Centaurea cyanus (540 g a.i./ha, post-emergence): 85%
Herbicidal action 14 DAT [%] against Lolium rigidum (resistant biotype) (540 g a.i./ha, post-emergence): 50%
Herbicidal action 14 DAT [%] against Phalaris minor (540 g a.i./ha, post-emergence): 60%
Herbicidal action 28 DAT [%] against Centaurea cyanus (540 g a.i./ha, post-emergence): 70%
Herbicidal action 28 DAT [%] against Lolium rigidum (540 g a.i./ha, post-emergence): 40%
Herbicidal action 28 DAT [%] against Lolium rigidum (resistant biotype) (540 g a.i./ha, post-emergence): 30%
Herbicidal action 28 DAT [%] against Phalaris minor (540 g a.i./ha, post-emergence): 40%

O=C(O)CNCP(=O)(O)O [(B7.5) Glyphosate]
Herbicidal action 28 DAT [%] against Centaurea cyanus (50 g a.i./ha, post-emergence): 10%
Herbicidal action 28 DAT [%] against Phalaris minor (50 g a.i./ha, post-emergence): 30%
Herbicidal action 21 DAT [%] against Amaranthus palmeri (50 g a.i./ha, post-emergence (Z26)): 60%
Herbicidal action 14 DAT [%] against Centaurea cyanus (150 g a.i./ha, post-emergence): 50%
Herbicidal action 28 DAT [%] against Bromus sterilis (150 g a.i./ha, post-emergence): 80%
Herbicidal action 28 DAT [%] against Centaurea cyanus (150 g a.i./ha, post-emergence): 40%
Herbicidal action 28 DAT [%] against Lolium rigidum (150 g a.i./ha, post-emergence): 30%
Herbicidal action 28 DAT [%] against Matricaria inodora (150 g a.i./ha, post-emergence): 70%
Herbicidal action 21 DAT [%] against Kochia Scoparia (150 g a.i./ha, post-emergence (Z26)): 20%
Herbicidal action 14 DAT [%] against Centaurea cyanus (450 g a.i./ha, post-emergence): 60%
Herbicidal action 28 DAT [%] against Bromus sterilis (450 g a.i./ha, post-emergence): 90%
Herbicidal action 28 DAT [%] against Centaurea cyanus (450 g a.i./ha, post-emergence): 60%
Herbicidal action 28 DAT [%] against Lolium rigidum (resistant biotype) (450 g a.i./ha, post-emergence): 70%
Herbicidal action 28 DAT [%] against Poa annua L. (450 g a.i./ha, post-emergence): 85%
Herbicidal action 16 DAT [%] against Richardia scabra (720 g a.i./ha, post-emergence): 62%
Herbicidal action 42 DAT [%] against Geranium dissectum (720 g a.i./ha, post-emergence): 50%
Herbicidal action 42 DAT [%] against Malva pusilla (720 g a.i./ha, post-emergence): 0%
Herbicidal action 45 DAT [%] against Amaranthus tuberculatus (720 g a.i./ha, post-emergence): 15%
Herbicidal action 45 DAT [%] against Ipomoea ssp (720 g a.i./ha, post-emergence): 0%
Herbicidal action 45 DAT [%] against Lysimachia nummularia (720 g a.i./ha, post-emergence): 7%
